Measurements taken from PubChem BioAssay (NCI).
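1) Cells in 96-well plates. 2) Compound, 48 h, 5 concentrations. 3) Linear interpolation between surrounding doses. 4) Unreached endpoint = highest concentration. TGI: total growth inhibition.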

How the values were obtained:
Experiment in all cases: NCI anticancer screen, dose series, 48 h
LOX IMVI melanoma = tested on: LOX IMVI melanoma
NCI-H226 lung = tested on: NCI-H226 lung
NCI-H522 lung = tested on: NCI-H522 lung
SF-295 CNS = tested on: SF-295 CNS
SK-MEL-2 melanoma = tested on: SK-MEL-2 melanoma
SK-OV-3 ovarian = tested on: SK-OV-3 ovarian

SMILES | TGI (LOX IMVI melanoma) [µM] | TGI (NCI-H226 lung) [µM] | TGI (NCI-H522 lung) [µM] | TGI (SF-295 CNS) [µM] | TGI (SK-MEL-2 melanoma) [µM] | TGI (SK-OV-3 ovarian) [µM]
Cc1ccc(S(=O)(=O)NN=C2CCCCCCCCCCC2)cc1 | > 100 | > 100 | > 100 | > 100 | > 100 | > 100
CC(OC(=O)NCn1cc(-c2ccccc2)nn1)c1ccccc1 (stereo unspecified) | > 100 | 56.4 | > 100 | > 100 | > 100 | –
O=C1Nc2cccc(Cl)c2/C1=C\c1c(Cl)nc2sccn12 | > 100 | – | > 100 | > 100 | 30.2 | 31
O=c1[nH]c(=O)n(C2CC(O)C(CO)O2)cc1OCCCc1ccccc1 (stereo unspecified) | > 100 | > 100 | > 100 | > 100 | – | > 100
Cc1c(CCOC=O)c(=O)[nH]c2nncn12 | > 100 | > 100 | > 100 | > 100 | – | > 100
Cc1cccc2c1Oc1ccccc1C2NC(=O)c1ccc([N+](=O)[O-])cc1 (stereo unspecified) | > 100 | 63.9 | > 100 | > 100 | > 100 | –
O=P(Oc1ccccc1)(Oc1ccccc1)Oc1c[nH]c2ccccc12 | 49.9 | 31.3 | – | 13.1 | 20.2 | 18.3
CC1=C2c3c(C)ccc4ccc(C)c(c34)C2(O)C(C)C1=O (stereo unspecified) | > 100 | > 100 | > 100 | – | > 100 | > 100
CC(N)C(C)Cc1ccccc1 (stereo unspecified) | > 100 | > 100 | > 100 | > 100 | – | > 100
CCCc1c(OC)c(=O)c2c(OC)cc(OC)c3c4c(OC)cc(OC)c5c(=O)c(OC)c(CCC)c(c1c23)c54 | 23.1 | 38.9 | – | 33.1 | 49.8 | 30.4
Nc1c(-c2nc3ccccc3s2)c2ccc([N+](=O)[O-])cc2c(=O)n1-c1cccc(C(=O)O)c1 | > 100 | 71.5 | > 100 | – | 75.4 | –
CCCc1cc(=O)oc2c3c(c4c(c12)OC(C)(C)C=C4)O[C@@H](C)[C@H](C)C3=O | 37.3 | 41.6 | 29.8 | 31.7 | – | –
O=C1CN2Cc3cc(N4CCOCC4)ccc3N=C2N1 | > 100 | > 100 | – | > 100 | > 100 | > 100
CC1(C)CC(=O)C2=C(C1)c1c(ccc3ccccc13)NC2c1cn(Cc2ccc(Cl)cc2)c2ccccc12 (stereo unspecified) | > 100 | – | > 100 | > 100 | > 100 | > 100
O=C1CCC[C@]2(CCC[C@@H](O)C2)N1 | > 100 | – | > 100 | > 100 | > 100 | > 100
CC(=O)C(=[N+]=[N-])C(=O)OC(C)(C)C#N | > 10 | > 10 | – | > 10 | > 10 | > 10
CC1CC[C@@]2(OC1)OC1C[C@H]3[C@@H]4C/C(=N\N(C)C)[C@@]5(O)CC(O)CC[C@]5(C)[C@H]4CC[C@]3(C)C1[C@@H]2C (stereo partly specified) | > 100 | > 100 | – | – | > 100 | > 100
COc1cc(C2c3cc4c(cc3OC(Nc3ccc(C(=O)O)cc3)C2C)OCO4)cc(OC)c1OC (stereo unspecified) | > 100 | – | 6.02 | > 100 | > 59.9 | –
COC(=O)C1(Cc2ccc3c(c2)CCC3)Cc2ccc3c(c2C1O)CCC3 (stereo unspecified) | 26.2 | 45 | 25.6 | 42.4 | – | 51.8
CN(C)c1ccc(/C=C(\C#N)C(N)=C(C#N)C#N)cc1 | > 100 | > 100 | > 100 | > 100 | – | > 100
C[C@H](Nc1c(O)c2c(c(O)c1Cl)C(=O)C=CC2=O)C(=O)Nc1ccc([N+](=O)[O-])cc1 | – | 6.84 | 6.65 | 7.54 | 9.1 | > 10
CC(C)(C)c1ccc(-c2nc3ccc([N+](=O)[O-])cc3c(=O)o2)cc1 | 29.9 | – | 40.7 | 76.4 | 47 | 95.7
O=C(/C=C/c1ccc(Cl)cc1)Oc1ccc(/C=C2\CCCCC2=O)cc1 | > 100 | – | > 100 | > 100 | > 100 | –
CC1(C)C(=O)C(C)(C)C12SSC1(S2)C(C)(C)C(=O)C1(C)C | > 100 | > 100 | – | > 100 | > 100 | > 100
CC1OC(OC2C(O[C@H]3CC[C@@]4(C)[C@@H](CC[C@@H]5[C@@H]4CC[C@]4(C)[C@@H]6[C@H](C[C@@H]54)O[C@]4(CC[C@@H](C)CO4)[C@H]6C)C3)OC(CO)C(OC3OC(CO)C(O)C(OC4OCC(O)C(O)C4O)C3OC3OCC(O)C(O)C3O)C2O)C(O)C(O)C1O (stereo partly specified) | 2.91 | 3.58 | – | 1.93 | 2.27 | 3.44
